Data reported in paper PMC2997425, “Acetazolamide-based fungal chitinase inhibitors” (Bioorganic & Medicinal Chemistry, 2010).
Counter-ions that a name gives are not always drawn. Like-named read-outs stand apart in the source and are kept apart here.

Columns and labels:
hCHT (human chitinase) = hCHT (human chitinase) (Homo sapiens, UniProt Q13231); assay: hCHT (human chitinase) inhibition; format: biochemical
AfChiA1 = AfChiA1 (Aspergillus fumigatus, UniProt Q873Y0); assay: biochemical; format: biochemical; conditions: for inhibition at 1000 µM: read-out: % inhibition at 1 mM
AfChiA1, sequence (Q873Y0 29-335): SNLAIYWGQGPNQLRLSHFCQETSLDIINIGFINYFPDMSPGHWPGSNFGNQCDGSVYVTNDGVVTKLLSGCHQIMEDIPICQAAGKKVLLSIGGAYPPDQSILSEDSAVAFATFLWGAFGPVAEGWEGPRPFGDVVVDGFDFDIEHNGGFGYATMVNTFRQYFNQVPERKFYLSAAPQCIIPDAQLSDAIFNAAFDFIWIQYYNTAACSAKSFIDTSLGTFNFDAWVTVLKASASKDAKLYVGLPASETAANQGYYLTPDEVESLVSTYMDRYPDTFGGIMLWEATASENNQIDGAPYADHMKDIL

hevamine = molecular target: hevamine; set-up: method as in PMID 10922481; conditions: read-out: Ki against hevamine; cited from earlier work
[1] = human chitinase, read-out: hCHT IC50
[2] = Table 3, 4-parameter logistic fit

hCHT (human chitinase), sequence (Q13231 22-466): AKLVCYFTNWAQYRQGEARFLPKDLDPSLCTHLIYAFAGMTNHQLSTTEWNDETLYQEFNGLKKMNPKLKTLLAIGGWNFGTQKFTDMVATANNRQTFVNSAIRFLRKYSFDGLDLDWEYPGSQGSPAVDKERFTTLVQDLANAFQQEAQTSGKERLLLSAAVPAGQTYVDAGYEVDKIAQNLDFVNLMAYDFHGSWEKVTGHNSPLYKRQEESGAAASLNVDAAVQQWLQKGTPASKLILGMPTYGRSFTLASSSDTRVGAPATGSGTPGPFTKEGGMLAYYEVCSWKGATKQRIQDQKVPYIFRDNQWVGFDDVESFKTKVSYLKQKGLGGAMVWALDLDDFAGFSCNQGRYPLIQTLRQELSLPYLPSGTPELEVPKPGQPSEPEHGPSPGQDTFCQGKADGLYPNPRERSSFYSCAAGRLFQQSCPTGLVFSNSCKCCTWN

In the case of `CC(=O)Nc1nncs1` (as salt: salt) [Compound 7, 5-acetamido-1,3,4-thiadiazole], the melting point is reported as 276 to 277 °C.

Work on `Cn1c(=O)c2[nH]c(Cl)nc2n(C)c1=O` [8-Chloro-theophylline, 8-chlorotheophylline, reference compound] yielded an IC50 (hCHT (human chitinase); [1]) greater than 2500 µM and a Hill slope (AfChiA1) of 1.0.

In the case of `CC(=O)N[C@H]1[C@H](O[C@H]2[C@@H](O)[C@@H](NC(C)=O)[C@H](O[C@H]3[C@H](O)[C@H]4N=C(N(C)C)O[C@H]4[C@@H]3CO)O[C@@H]2CO)O[C@H](CO)[C@@H](O)[C@H]1O` [Allosamidin, reference compound], the Hill slope (AfChiA1; Fig. 1, triplicate, four-parameter logistic fit) is given as 0.9 and the Ki (hevamine) is given as 3.1 µM.

`CC(=O)Nc1nnc(S(N)(=O)=O)s1` [Compound 1, acetazolamide] gave an IC50 (hCHT (human chitinase); [1]) greater than 1000 µM.

With `CCC(=O)Nc1nnc(S(N)(=O)=O)s1` [Compound 2, 5-propylamido-2-sulfamoyl-1,3,4-thiadiazole] the Hill slope (AfChiA1) was 0.71, the “inhibitory activity against AfChiA1 (in words)” value (from here on “inhibitory activity”) (AfChiA1) was “reduction in activity” and the inhibition at 1000 µM (AfChiA1) was 76%.

`NS(=O)(=O)c1nnc(NC(=O)c2ccccc2)s1` [Compound 5, 5-benzylamido-2-sulfamoyl-1,3,4-thiadiazole] showed a Hill slope (AfChiA1; [2]) of 0.5 and an inhibition at 1000 µM (AfChiA1) of 51%.

With `Nc1nnc(S(N)(=O)=O)s1` [Compound 6, 5-amino-2-sulfamoyl-1,3,4-thiadiazole monohydrochloride] the “inhibitory activity” value (AfChiA1) was “abolishes inhibitory activity”.

For `CC(=O)Nc1nncs1` [Compound 7, 5-acetamido-1,3,4-thiadiazole], the “inhibitory activity” value (AfChiA1) was “abrogate activity”.

For `CC(=O)Nc1nnc(C)s1` [Compound 8], the “inhibitory activity” value (AfChiA1) was “abrogate activity”.

For `CC(=O)Nc1nnc(S)s1` [Compound 9, 5-Acetamido-2-thiol-1,3,4-thiadiazole], the Hill slope (AfChiA1; [2]) was 1.1.

Work on `CC(=O)Nc1nnc(-c2ccccc2)s1` [Compound 10] yielded a Hill slope (AfChiA1; [2]) of 0.5.

Work on `CC(=O)Nc1nnc(C(F)(F)F)s1` [Compound 11] yielded a Hill slope (AfChiA1; [2]) of 1.1.

In the case of `CC(=O)Nc1nnc(Br)s1` [Compound 12], the Hill slope (AfChiA1; [2]) is reported as 0.7.

For `COc1cccc(CSc2nnc(NC(C)=O)s2)c1` [Compound 14], the inhibition at 1000 µM (AfChiA1) was 38%.

For `O=C(Nc1nnc(-c2ccccc2)s1)C(F)(F)F` [Compound 15], the Hill slope (AfChiA1) was 1.2 and the inhibition at 1000 µM (AfChiA1) was 85%.

Compound `O=C(Nc1nnc(N2CCN(c3cccc(Cl)c3)CC2)s1)C(F)(F)F` [Compound 17] has an inhibition at 1000 µM (AfChiA1) of 30%.

For `CC(C)Cc1nnc(NC(=O)CCl)s1` [Compound 20], the “inhibitory activity” value (AfChiA1) was “reduction in activity”.

With `O=C(CCl)Nc1nnc(C(F)(F)F)s1` [Compound 21] the “inhibitory activity” value (AfChiA1) was “reduction in activity”.

For `c1coc(CNc2ncnc3[nH]cnc23)c1` [Kinetin, reference compound], the IC50 (hCHT (human chitinase)) was greater than 1000 µM and the “inhibitory activity” value (AfChiA1) was “failed to show any discernable effect”.
